Where a name gives a salt, the structure may show the parent alone.
Key:
[1] = cited from earlier work
[2] = Stability of crystalline Form I of lorcaserin hydrochloride stored packed for at least 3 months; type: physicochemical; settings: 25° C./60% RH and 40° C./75% RH
Protocol: The crystalline Form I of lorcaserin hydrochloride having less than 0.5% water as manufactured by the process of the present invention was subjected to stability for at least 3 months at 25° C./60% RH or at about 40° C./75% RH.
In a further aspect, the stable crystalline Form I of lorcaserin hydrochloride can be stored under nitrogen atmosphere and packed in a double polythene bag which is either heat sealed or twisted and tied with a thread (primary packing). The primary packing containing the crystalline Form I of lorcaserin hydrochloride can be kept inside a black color polyethylene bag containing a desiccant (molecular sieves) which is either heat sealed or twisted and tied, and the above double polyethylene bags may further be placed inside a triple laminated bag, optionally containing a desiccant which is either heat sealed or twisted and tied. Finally, the triple laminated bag can be kept inside a closed high density polyethylene (HDPE) container and stored in a controlled environment chamber at 25° C. and/or 40° C.

[3] = 2 Months, LDPE bag closed with a heat seal (Table 1)
[4] = 2 Months, LDPE bag closed with a twist and tie (Table 2)
[5] = 3 Months, LDPE bag closed with a heat seal (Table 1)
[6] = 3 Months, LDPE bag closed with a twist and tie (Table 2)

## C[C@H]1CNCCc2ccc(Cl)cc21 [Form III, (R)-8-chloro-1-methyl-2,3,4,5-tetrahydro-1H-3-benzazepine hydrochloride hemihydrate]
[1]; DVS, at 90% RH
  water adsorbed: less than 0.5%
[1]
  crystalline form by XRPD after the DVS cycle: no change in crystalline form

## C[C@H]1CNCCc2ccc(Cl)cc21.Cl [(R)-8-chloro-1-methyl-2,3,4,5-tetrahydro-1H-3-benzazepine hydrochloride]
[2]; 1 Month, LDPE bag closed with a heat seal (Table 1), specification Less than 0.5% w/w
  Water (%): 0.31%
[2]; 1 Month, LDPE bag closed with a heat seal (Table 1), specification: should confirm the Form-I
  X-Ray Diffraction: Form I
[2]; 1 Month, LDPE bag closed with a twist and tie (Table 2), specification Less than 0.5% w/w
  Water (%): 0.31%
[2]; 1 Month, LDPE bag closed with a twist and tie (Table 2), specification: should confirm the Form-I
  X-Ray Diffraction: Form I
[2]; 1 Month, LDPE bag purged with nitrogen closed with a heat seal (Table 1), specification White to off-white
  Description: off-
[2]; 1 Month, LDPE bag purged with nitrogen closed with a twist and tie (Table 2), specification White to off-white
  Description: off-
[2]; [3]
  Description: off-
  Water (%): 0.35%
  X-Ray Diffraction: Form I
[2]; [4]
  Description: off-
  Water (%): 0.35%
  X-Ray Diffraction: Form I
[2]; [5]
  Description: off-white
  Water (%): 0.35%
  X-Ray Diffraction: Form I
[2]; [6]
  Description: off-white
  Water (%): 0.35%
  X-Ray Diffraction: Form I
[1]; DVS, between about 40 and about 80% RH
  moisture adsorbed (calculated): about 3.8%
[1]; DVS
  relative humidity (RH) above which moisture is readily adsorbed: 40-60%
[1]
  crystalline form by XRPD after the DVS cycle: conversion to the hemihydrate (Form III)

Source: patent US9714225B2, “Processes for the preparation of lorcaserin” (CADILA HEALTHCARE LIMITED, priority 2013, dated 2017)
